# Test results: US12024707B2, “Methods and compositions for modulating lncRNAs and methods of treatment based on lncRNA expression” (Washington University, priority 2020, dated 2024)
# Values joined by “and” are separate entries in the source; they are usually repeats but may differ in a detail not shown here. Equal values may be shown once. Where a name gives a salt, the structure may show the parent alone. Read-outs that look alike come from different tables or passages of the source.
# System: HT29 RAMS11 overexpressing cells
# Test: High-throughput viability assay (resazurin), 119 FDA-approved anticancer drugs, RAMS11 overexpressing cells (Clone1, Clone2)
# [1] = OE1 (RAMS11 overexpression clone 1), 0.1 uM drug, 72 h, vs empty vector control
# [2] = OE1 (RAMS11 overexpression clone 1), 1 uM drug, 72 h, vs empty vector control
# [3] = OE1 (RAMS11 overexpression clone 1), 10 uM drug, 72 h, vs empty vector control
# [4] = OE2 (RAMS11 overexpression clone 2), 0.1 uM drug, 72 h, vs empty vector control
# [5] = OE2 (RAMS11 overexpression clone 2), 1 uM drug, 72 h, vs empty vector control
# [6] = OE2 (RAMS11 overexpression clone 2), 10 uM drug, 72 h, vs empty vector control
Compound,Viability Fold Change,Viability Fold Change [1],Viability Fold Change [2],Viability Fold Change [3],Viability Fold Change [4],Viability Fold Change [5],Viability Fold Change [6],"increase in drug resistance in HT29 RAMS11 overexpressing cells (topoisomerase inhibitors, vs empty vector cells)"
S=P(N1CC1)(N1CC1)N1CC1 [Thiotepa],0.7908 and 0.9826 and 0.9401 and 0.9694 and 0.9433 and 0.8817,–,–,–,–,–,–,–
OC[C@H]1O[C@@H](n2cnc3c2NC=NC[C@H]3O)C[C@@H]1O [Pentostatin],–,0.9312,0.9502,0.8658,0.9287,0.9777,1.078,–
N#Cc1ccc(C(c2ccc(C#N)cc2)n2cncn2)cc1 [Letrozole],–,0.9923,0.9536,0.9791,0.9454,1.057,0.8412,–
Cc1cc(Nc2ncc(Cl)c(Nc3ccccc3S(=O)(=O)C(C)C)n2)c(OC(C)C)cc1C1CCNCC1 [Ceritinib],–,0.9923,1.015,0.8304,1.009,1.068,0.8195,–
CCCS(=O)(=O)Nc1ccc(F)c(C(=O)c2c[nH]c3ncc(-c4ccc(Cl)cc4)cc23)c1F [Vemurafenib],–,0.6921,0.4381,0.569,0.762,0.5468,0.6144,–
CC(=O)O[C@@]12CO[C@@H]1C[C@H](O)[C@@]1(C)C(=O)[C@H](O)C3=C(C)[C@@H](OC(=O)[C@H](O)[C@@H](NC(=O)OC(C)(C)C)c4ccccc4)C[C@@](O)([C@@H](OC(=O)c4ccccc4)[C@H]21)C3(C)C [Docetaxel],–,2.831,2.996,2.894,2.726,2.845,2.869,–
CC(C)C[C@H](NC(=O)[C@H](Cc1ccccc1)NC(=O)c1cnccn1)B(O)O [Bortezomib],–,0.6015,1.059,1.152,0.5035,0.8063,0.9968,–
NC(=O)NO [Hydroxyurea],–,0.9496,0.9632,0.9723,0.9871,1.074,0.9675,–
CN(C)/N=N/c1[nH]cnc1C(N)=O [Dacarbazine],–,1.078,0.9877,0.983,1.084,1.028,0.9794,–
"CC(=O)[C@]1(O)Cc2c(O)c3c(c(O)c2[C@@H](O[C@H]2C[C@H](N)[C@H](O)[C@H](C)O2)C1)C(=O)c1ccccc1C3=O [idarubicin HCl, reference compound]",–,–,–,–,–,–,–,at least a two-fold increase in drug resistance
C[C@]12CC[C@H](O)CC1=CC[C@@H]1[C@@H]2CC[C@]2(C)C(c3cccnc3)=CC[C@@H]12 [Abiraterone],–,0.9503,0.9997,1.001,1.008,1.043,0.9879,–
O=P1(NCCCl)OCCCN1CCCl (centres unmarked) [Ifosfamide],–,0.9167,1.025,0.9724,0.9226,1.055,1.058,–
O=NN(CCCl)C(=O)NC1CCCCC1 [Lomustine],–,0.9969,1.03,1.027,0.991,1.111,0.9646,–
